# According to paper PMC3923778 (PLoS Currents, 2014):
# Entries after “also recorded” stand apart in the source; their conditions may differ.
# What was measured:
# Assay type in all cases: in vivo, mouse
# [1] = Body weight during chronic dosing in R6/2 mice; conditions: BID, ANOVA
# Method: Body weight was measured starting at the age of 4 weeks and a further two times per week on the same day until the end of the study. This was done just prior to animals receiving doses for those days.
# (§1) All values are presented as mean ± Standard Error of Mean (SEM), and differences are considered to be statistically significant at the p < 0.05 level. Statistical analysis was performed using StatsDirect statistical software. Differences between group means were analyzed by 1-way-ANOVA followed by Dunnett’s test (comparison to the control (=vehicle treated TG mice) group). The acquisition of the Cued two-choice swim test was analyzed using Fisher’s exact test.
# [2] = test system: R6/2 mice; experiment: Rotarod; conditions: BID, ANOVA
# Method: Motor function testing including open field and rear climbing tests were commenced at 4 weeks of age and continued at weeks 6, 8 and 12, for grip strength test at age weeks 4 and 12 and for rotarod at age weeks 4, 6 and 8. Compound treatment was started at 4 weeks of age after the baseline behavioral tests.
# Mice were tested at age weeks 4, 6 and 8 over 3 consecutive days (Wed, Thu, Fri). Each daily session included a training trial of 5 min at 4 RPM on the rotarod apparatus (AccuScan Instruments, Columbus, USA). One hour later, the animals were tested for 3 consecutive accelerating trials of 6 min with the speed changing from 0 to 40 RPM over 360 seconds and an inter-trial interval at least 30 min. The latency to fall from the rod was recorded. Mice remaining on the rod for more than 360 s were removed and their time scored as 360 sec.
# as §1
# [3] = test system: cGMP levels in the striatum; experiment: Microdialysis PD: cGMP in striatal extracellular dialysate; conditions: male R6/2
# Method: Microdialysis PK/PD studies were conducted at Brains Online, Inc. (San Francisco, CA, USA)
# Male R6/2 (CBA/C57Bl/6 strain, CAG 120) mice aged 7-8 weeks (20 - 30 g; The Jackson Laboratory, USA) were used for the experiments. The animals were group housed in plastic cages (3-4 animals / cage) and had access to food and water ad libitum. Experiments were conducted in accordance with the declarations of Helsinki and were approved by the Institutional Animal Care and Use Committee of the University of California, San-Francisco.
# Mice were anesthetized using isoflurane (2%, 800 mL/min O2). Bupivacain/epinephrine was used for local anesthesia. Carprophen was used peri-/post-operative as analgesia. The animals were placed in a stereotaxic frame (Kopf instruments, USA), and microdialysis probes were inserted into the striatum. Coordinates for the tips of the probes were for striatum: […] (AP) = +0.8 mm to bregma, lateral (L) = -1.7 mm to midline and ventral (V) = -4.0 mm to dura, the toothbar was set at 0.0 mm (Paxinos and Franklin, 2001). […] After surgery animals were kept individually in cages and provided food and water ad libitum. Animals were fasted the night before the experiment.
# Experiments were performed one day after surgery. On the day of the experiment, the probes of the animals were connected with flexible PEEK tubing to a microperfusion pump (Syringe pump UV 8301501, Univentor, Malta). MQ probes were perfused with aCSF containing 0.2% albumin at a flow rate of 0.10 µL/min. As the carrier flow, ultrapurified H2O was used at a flow rate of 0.70 µL/min. I-shaped probes were perfused with aCSF at a flow rate of 1.5 µL/min. Microdialysis samples were collected for 30-minute periods by an automated fraction collector (CMA 142, Sweden) into mini-vials. Samples originating from I-shaped probes were collected into mini-vials already containing 15 µL of 0.02 M formic acid. 10 µL of 0.02 M formic acid was added in the samples originating from MQ probes. […] Following compound administration, microdialysate samples continued to be collected for 240 min at 30 minute intervals. All dialysis samples were stored at -80 °C.
# Concentrations of cGMP were determined by HPLC with tandem mass spectrometry (MS/MS) detection. Standard samples were prepared in artificial dialysate matrix, consisting of 3 parts (v/v) aCSF mixed with 1 part 0.02M formic acid in ultrapurified H2O. Final concentrations of standard samples were 0.02, 0.05, 0.1, 0.2, 0.5, 1, 2, 5 and 10 nM. Quality control (QC) samples were prepared independently. Final concentrations were 0.3 (QClow), 0.75 (QCmid) and 7.5 (QChigh) nM. […]
# Treatment effects were evaluated among different drug concentrations and also compared to baseline, using two-way ANOVA for repeated measurements followed by Student-Newman-Keuls post-hoc test. […]
compound,measurement,setting,value
"CN1C(=O)c2nc(Cc3ccc(C(F)(F)F)cc3)[nH]c2N2C1=N[C@H]1CCC[C@H]12 [SCH-51866, (+)-cis-5,6a,7,8,9,9a-hexahydro-2-[4-[trifluro-methyl]phenylmethyl]-5-methyl-cylopent[4,5]imidazo [2,1-b]purin-4(3H)one]",Body Weight: p vs Vehicle-treated R6/2 mice,"[1]; Age Week 4, 10 mg/kg p.o.",ANOVA: p=0.878
same,Body Weight: p vs Vehicle-treated R6/2 mice,"[1]; Age Week 4, 30 mg/kg p.o.",ANOVA: p=0.878
same,Body Weight: p vs Vehicle-treated R6/2 mice,"[1]; Age Week 5, 10 mg/kg p.o.",ANOVA: p=0.762
same,Body Weight: p vs Vehicle-treated R6/2 mice,"[1]; Age Week 5, 30 mg/kg p.o.",ANOVA: p=0.762
same,Body Weight: p vs Vehicle-treated R6/2 mice,"[1]; Age Week 6, 10 mg/kg p.o.",ANOVA: p=0.934
same,Body Weight: p vs Vehicle-treated R6/2 mice,"[1]; Age Week 6, 30 mg/kg p.o.",ANOVA: p=0.934
same,Body Weight: p vs Vehicle-treated R6/2 mice,"[1]; Age Week 7, 10 mg/kg p.o.",ANOVA: p=0.766
same,Body Weight: p vs Vehicle-treated R6/2 mice,"[1]; Age Week 7, 30 mg/kg p.o.",ANOVA: p=0.766
same,Body Weight: p vs Vehicle-treated R6/2 mice,"[1]; Age Week 8, 10 mg/kg p.o.",ANOVA: p=0.926
same,Body Weight: p vs Vehicle-treated R6/2 mice,"[1]; Age Week 8, 30 mg/kg p.o.",ANOVA: p=0.926
same,Body Weight: p vs Vehicle-treated R6/2 mice,"[1]; Age Week 9, 10 mg/kg p.o.",ANOVA: p=0.886
same,Body Weight: p vs Vehicle-treated R6/2 mice,"[1]; Age Week 9, 30 mg/kg p.o.",ANOVA: p=0.886
same,Body Weight: p vs Vehicle-treated R6/2 mice,"[1]; Age Week 10, 10 mg/kg p.o.",ANOVA: p=0.969
same,Body Weight: p vs Vehicle-treated R6/2 mice,"[1]; Age Week 10, 30 mg/kg p.o.",ANOVA: p=0.969
same,Body Weight: p vs Vehicle-treated R6/2 mice,"[1]; Age Week 11, 10 mg/kg p.o.",ANOVA: p=0.891
same,Body Weight: p vs Vehicle-treated R6/2 mice,"[1]; Age Week 11, 30 mg/kg p.o.",ANOVA: p=0.891
same,Body Weight: p vs Vehicle-treated R6/2 mice,"[1]; Age Week 12, 10 mg/kg p.o.",ANOVA: p=0.774
same,Body Weight: p vs Vehicle-treated R6/2 mice,"[1]; Age Week 12, 30 mg/kg p.o.",ANOVA: p=0.774
same,Body Weight: p vs Vehicle-treated R6/2 mice,"[1]; Age Week 13, 10 mg/kg p.o.",ANOVA: p=0.855
same,Body Weight: p vs Vehicle-treated R6/2 mice,"[1]; Age Week 13, 30 mg/kg p.o.",ANOVA: p=0.855
same,Body Weight: p vs Vehicle-treated R6/2 mice,"[1]; Age Week 14, 10 mg/kg p.o.",ANOVA: p=0.878
same,Body Weight: p vs Vehicle-treated R6/2 mice,"[1]; Age Week 14, 30 mg/kg p.o.",ANOVA: p=0.878
same,Body Weight: p vs Vehicle-treated R6/2 mice,"[1]; Age Week 15, 10 mg/kg p.o.",ANOVA: p=0.989
same,Body Weight: p vs Vehicle-treated R6/2 mice,"[1]; Age Week 15, 30 mg/kg p.o.",ANOVA: p=0.989
same,Body Weight: p vs Vehicle-treated R6/2 mice,"[1]; Age Week 16, 10 mg/kg p.o.",ANOVA: p=0.651
same,Body Weight: p vs Vehicle-treated R6/2 mice,"[1]; Age Week 16, 30 mg/kg p.o.",ANOVA: p=0.651
same,Body Weight: p vs Vehicle-treated R6/2 mice,"[1]; Age Week 17, 10 mg/kg p.o.",ANOVA: p=0.817
same,Body Weight: p vs Vehicle-treated R6/2 mice,"[1]; Age Week 17, 30 mg/kg p.o.",ANOVA: p=0.817
same,Body Weight: p vs Vehicle-treated R6/2 mice,"[1]; Age Week 18, 10 mg/kg p.o.",ANOVA: p=0.644
same,Body Weight: p vs Vehicle-treated R6/2 mice,"[1]; Age Week 18, 30 mg/kg p.o.",ANOVA: p=0.644
same,Body Weight: p vs Vehicle-treated R6/2 mice,"[1]; Age Week 19, 10 mg/kg p.o.",ANOVA: p=0.975
same,Body Weight: p vs Vehicle-treated R6/2 mice,"[1]; Age Week 19, 30 mg/kg p.o.",ANOVA: p=0.975
same,Body Weight: p vs Vehicle-treated R6/2 mice,"[1]; Age Week 20, 10 mg/kg p.o.",ANOVA: p=0.900
same,Body Weight: p vs Vehicle-treated R6/2 mice,"[1]; Age Week 20, 30 mg/kg p.o.",ANOVA: p=0.900
same,Body Weight: p vs Vehicle-treated R6/2 mice,"[1]; Age Week 21, 10 mg/kg p.o.",ANOVA: p=0.996
same,Body Weight: p vs Vehicle-treated R6/2 mice,"[1]; Age Week 21, 30 mg/kg p.o.",ANOVA: p=0.996
same,Rotarod: p vs Vehicle-treated R6/2 mice,"[2]; Age Week 4, 10 mg/kg p.o.",ANOVA: p=0.458
same,Rotarod: p vs Vehicle-treated R6/2 mice,"[2]; Age Week 4, 30 mg/kg p.o.",ANOVA: p=0.458
same,Rotarod: p vs Vehicle-treated R6/2 mice,"[2]; Age Week 6, 10 mg/kg p.o.",ANOVA: p=0.262
same,Rotarod: p vs Vehicle-treated R6/2 mice,"[2]; Age Week 6, 30 mg/kg p.o.",ANOVA: p=0.262
same,Rotarod: p vs Vehicle-treated R6/2 mice,"[2]; Age Week 8, 10 mg/kg p.o.",ANOVA: p=0.171
same,Rotarod: p vs Vehicle-treated R6/2 mice,"[2]; Age Week 8, 30 mg/kg p.o.",ANOVA: p=0.171
same,Elevation in cGMP in extracellular dialysate over baseline,[3]; 3 mg/kg po acute,not
same,Elevation in cGMP in extracellular dialysate over baseline,[3]; 10 mg/kg po acute,significantly elevated cGMP levels; also recorded: significant over baseline
same,Elevation in cGMP in extracellular dialysate over baseline,[3]; 30 mg/kg po acute,significantly elevated cGMP levels; also recorded: significant over baseline
same,accumulation of cGMP versus dose,[3]; acute po,increased dose-proportionally
